Consider one compound from ChEMBL document CHEMBL1125772, “Synthesis and receptor binding of enantiomeric N-substituted cis-N-[2-(3,4-dichlorophenyl)ethyl]-2-(1-pyrrolidinyl)cyclohexylamines as high-affinity sigma receptor ligands” (J Med Chem, 1991).

In this assay the target is Kappa-type opioid receptor (Cavia porcellus, UniProt P41144). Kind of assay: Compound was tested for the inhibitory concentration against opioid receptor kappa by using [3H]bremazocine as radioligand in guinea pig brain; No inhibition.
Sequence of Kappa-type opioid receptor (P41144 whole entry): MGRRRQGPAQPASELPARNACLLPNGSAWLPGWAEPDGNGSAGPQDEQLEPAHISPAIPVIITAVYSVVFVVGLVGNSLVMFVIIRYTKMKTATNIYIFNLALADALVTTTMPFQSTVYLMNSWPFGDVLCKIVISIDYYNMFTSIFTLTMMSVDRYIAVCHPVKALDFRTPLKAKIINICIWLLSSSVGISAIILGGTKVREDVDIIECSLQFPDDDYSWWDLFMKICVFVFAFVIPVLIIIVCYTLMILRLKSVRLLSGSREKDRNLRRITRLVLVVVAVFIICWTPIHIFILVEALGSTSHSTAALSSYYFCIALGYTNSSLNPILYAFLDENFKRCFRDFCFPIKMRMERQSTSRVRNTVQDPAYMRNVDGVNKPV

For the compound `Clc1ccc(CCN[C@@H]2CCCC[C@@H]2N2CCCC2)cc1Cl`, the Ki result is “Not Active”.
